Measurements as given in PubChem BioAssay AID488878 (Sanford-Burnham Center for Chemical Genomics, 2010).
Activity calls are given as the source filed them. No rule for the calls is given here.

molecular target: Alkaline phosphatase, placental type (Homo sapiens) (UniProt P05187); assay: activation of placental alkaline phosphatase – biochemical, uHTS hits, mouse IAP activator project, dose response (AID 488878); conditions: purified human PLAP enzyme activity

Row | Structure (SMILES) | EC50
1 | NS(=O)(=O)c1ccc(-c2ccc(/C=C3\SC(=S)N(C4CCS(=O)(=O)C4)C3=O)o2)cc1 (stereo unspecified) | 17.6 µM
2 | CC1CC(=O)c2c(cc3c(-c4c(O)cc(O)c5c(O)c6c(cc45)OC(C)CC6=O)c(O)cc(O)c3c2O)O1 (stereo unspecified) | 21.1 µM
3 | CCN1/C(=C/c2ccc3cc(C)ccc3[n+]2CC)Sc2ccc3sccc3c21 | 65.3 µM
4 | Cc1ccc(NC(=O)CN(C)S(=O)(=O)c2ccc3[nH]c(=O)oc3c2)c(C)c1 | 64.6 µM
5 | O=C(CCN1C(=O)/C(=C/c2ccco2)SC1=S)Nc1ccc(C(=O)O)c(O)c1 | 27.6 µM
6 | O=C1/C(=C/C=C/c2ccco2)SC(=S)N1c1ccc(O)cc1 | 61.8 µM
7 | NS(=O)(=O)c1ccc(NC(=S)NC(=O)/C=C/c2ccco2)cc1 | > 100 µM (inactive)
8 | Cc1cc(O)c2c(c1O)C(=O)[C@]13C(=C2O)C(=O)[C@@H]2[C@@H](O)[C@H]1[C@@H]1[C@H](O)[C@H]3C(=O)C3=C(O)c4c(O)cc(C)c(O)c4C(=O)[C@]312 | 66.3 µM
9 | Oc1ccc(/C=N/N=C/c2ccc(O)c(O)c2)cc1O | 68 µM
10 | O=C1C=C(O)c2c(O)cc(O)c(O)c2C1=O | > 100 µM (inactive)
11 | NNC(=O)c1cc(O)c(O)c(O)c1 | 69.3 µM
12 | N#C/C(=C\c1coc2ccc(O)cc2c1=O)C(=O)Nc1nc2ccccc2s1 | 91.1 µM
13 | COc1ccccc1CNC(=O)CCNS(=O)(=O)c1ccc2[nH]c(=O)oc2c1 | 49 µM
14 | O=[N+]([O-])c1cc(S(=O)(=O)c2ccc(O)c([N+](=O)[O-])c2)ccc1O | > 100 µM (inactive)
15 | COc1ccc(N=C2SC(C(N)=O)CC(=O)N2CCc2ccc(OC)c(OC)c2)cc1 (stereo unspecified) | 26.1 µM
16 | CCn1nc(C)c(CN2CCC(C(=O)Nc3cccc(-c4cccc(F)c4)c3)CC2)c1C | 65.1 µM
17 | C[N+](C)(C)C(Cc1ccccc1)C(=O)[O-] (stereo unspecified) | 59.7 µM
18 | Oc1ccc(-c2csc(Nc3ccccn3)n2)cc1O | 45.8 µM
19 | COc1cc(OC)c(NC(=O)CN(C)S(=O)(=O)c2ccc3[nH]c(=O)oc3c2)cc1Cl | 69.8 µM
20 | O=C1NC(=S)NC(=O)C1=Cc1ccc(Br)s1 | 59.6 µM
21 | N#C/C(=C\c1ccc(O)c(O)c1)C(=O)c1ccc(O)c(O)c1 | 8.03 µM
22 | O=C(O)C(c1ccccc1)N1C(=O)/C(=C\c2ccc(O)c(O)c2)SC1=S (stereo unspecified) | 62.9 µM
23 | Nc1cc2nc3ccccc3oc-2cc1=O | 57.2 µM

Row | Structure (SMILES) | EC50
24 | Cc1c(CN2CCC(C(=O)Nc3cccc(-c4cccc(Cl)c4)c3)CC2)cnn1C | 71.6 µM
25 | CC(C(=O)Nc1ccc(C(=O)O)c(O)c1)N1C(=O)/C(=C\c2ccco2)SC1=S (stereo unspecified) | 76.8 µM
26 | COc1ccc(NC(=O)CCNS(=O)(=O)c2ccc3[nH]c(=O)oc3c2)cc1Cl | 54 µM
27 | COc1cccc(CNC(=O)CCNS(=O)(=O)c2ccc3[nH]c(=O)oc3c2)c1 | > 100 µM (inactive)
28 | NS(=O)(=O)c1cc(C(=O)NC2CCSc3ccccc32)ccc1Cl (stereo unspecified) | 63.9 µM
29 | O=C(N/N=C/c1ccc(O)cc1O)C(=O)N/N=C/c1ccc(O)cc1O | > 100 µM (inactive)
30 | COc1ccc(OC)c(S(=O)(=O)Nc2ccc(O)c(Sc3ncn[nH]3)c2)c1 | 57.5 µM
31 | CC1(C(=O)NNC(=O)c2ccc(=O)oc2)CC1Br (stereo unspecified) | 57.9 µM
32 | O=C1CC(c2ccc(O)c(O)c2)Oc2cc(O)cc(O)c21 (stereo unspecified) | 60.3 µM
33 | Cc1ccc(NS(=O)(=O)c2ccc3[nH]c(=O)oc3c2)c(C)c1 | 89 µM
34 | Cc1cc(/C=C2\SC(=S)NC2=O)c(C)[nH]1 | 61.1 µM
35 | CCOC(=O)C(C)Sc1nc2c(c(=O)[nH]c(=O)n2C)n1C/C=C(/C)Cl (stereo unspecified) | 84.8 µM
36 | O=C(N/N=C/c1ccc(O)c(O)c1)N/N=C/c1ccc(O)c(O)c1 | 29.6 µM
37 | O=C(CCO)c1ccc(O)cc1 | 18.9 µM
38 | O=C1NC(=S)NC(=O)C1=Cc1ccc2c(c1)CCN2CCCCl | 57.5 µM
39 | Cc1ccc(NC(=O)CCNS(=O)(=O)c2ccc3[nH]c(=O)oc3c2)c(Cl)c1 | 26.3 µM
40 | COc1cc(/C=C(\C#N)C(=O)c2ccc(O)c(O)c2)cc(I)c1O | > 100 µM (inactive)
41 | O=c1cc(-c2ccc(O)cc2)oc2c(O)c(O)c(O)c(O)c12 | 59.6 µM
42 | S=C(NCc1ccccc1)NC1CCSc2ccccc21 (stereo unspecified) | > 100 µM (inactive)
43 | O=C(O)CC(C(=O)O)N1C(=O)/C(=C/c2ccc(-c3nc4ccccc4s3)o2)SC1=S (stereo unspecified) | 60.8 µM
44 | O=C(CN1CCN(c2ccccc2F)CC1)c1ccc(O)c(O)c1 | > 100 µM (inactive)
45 | C=CCn1c(SCC(=O)c2ccc(O)c(O)c2)nnc1-c1cccc(OC)c1 | 47.8 µM
46 | CSC1=NSC2=NC(=O)/C(=C/c3coc4ccc(O)cc4c3=O)C(=N)N12 | 27.2 µM
